US9808470B2, “Estrogenic components for use in the treatment of neurological disorders” (UNIVERSITE DE LIEGE, priority 2012, dated 2017)

How the values were obtained:
[1] = test system: myelin-related mRNA (CNP, MAG, MBP); test: Ex.6 IL-1β induced diffuse white matter injury mouse model: myelin gene expression at P10 (qRT-PCR); format: in vivo
Experimental: Experimental protocols were approved by the institutional guidelines of the Institut National de la Santé et de la Recherche Scientifique (Inserm, France), and met the guidelines for the United States Public Health Service's Policy on Humane Care and Use of Laboratory Animals (NIH, Bethesda, Md., USA). Experiments were performed using OF1 strain mice purchased from Charles River (L'Arbresle, France) and born in our animal facility. Animals were housed under a 12 h light-dark cycle, had access to food and water ad libitum. Sex was determined at birth and confirmed at sacrifice. To avoid any potential variability linked to sex to differences. only male pups were used. Mice received twice a day from P1 to P4 and once on P5 a 5 μl intraperitoneal injection containing either PBS alone (sham group) or 10 μg/kg/dose recombinant mouse IL-1β in PBS. Vehicle group received only IL-1β injections while 10 μg E4 (5 mg/kg) or 20 μg E4 (10 mg/kg) was added to IL-1β once a day from P1 to P5 for E4 treated groups. Pups were sacrificed 3 hours after the first intraperitoneal injection at P1, 3 hours after last treatment at P5 or at P10 by intracardiac perfusion with NaCl 0.9% after anaesthesia by inhaled isoflurane.
At P10, anterior cortex and underneath white matter were collected and immediately frozen in nitrogen liquid, before storage at −80° C. for study of myelin-related mRNA expression.
Preparation of samples for quantitative reverse-transcriptase polymerase-chain reaction (qRT-PCR), primer design, and PCR protocol, were similar to that previously described (Favrais et al., 2011; Chhor et al., 2013). Briefly, RNA extraction was performed by with RNeasy mini kit according to the manufacturer's instructions (Qiagen, Courtaboeuf, France). RNA quality and concentration were assessed by spectrophotometry with the Nanodrop™ apparatus (Thermoscientific, Wilmington, Del., USA). Total RNA (0.5-1 μg) was subjected to reverse transcription using the iScript™ cDNA synthesis kit (Bio-Rad, Marnes-la-Coquette, France). qPCR was using SYBR Green Supermix (Bio-Rad). The relative expression of genes of interest (GOI) were expressed relative to expression of the reference gene, ribosomal protein L13a (Rpl13a) for CD11b+ cells and Glyceraldehyde 3-phosphate dehydrogenase (GAPDH) for O4+ cells and anterior brains based on reference gene suitability testing. Analyses were performed with the Biorad CFX manager 2.1 software. The relative quantities are expressed as the specific ratio between the gene of interest and Rpl13 or GAPDH. The data are presented as relative mRNA units with respect to control values (expressed as a fold-difference with respect to the mean of sham values).

doublecortin (DCX) = test: Ex.8 therapeutic HIE rat model: doublecortin staining; format: in vivo
Experimental: To study the therapeutic effect of estetrol, newborn rat pups were assigned to one of the following 14 groups at postnatal day 7 (FIG. 23(B)): Sham group (n=12), Vehicle (n=15), 5 mg/kg/day E4 (n=11), 10 mg/kg/day E4 (n=11), 5 mg/kg/day E4+1.6 mg/kg/day PROG (n=11), 10 mg/kg/day E4+1.6 mg/kg/day PROG (n=11), 5 mg/kg/day E4+16 mg/kg/day PROG (n=11), 10 mg/kg/day E4+16 mg/kg/day PROG (n=13), 5 mg/kg/day E4+136 ng//kg/day E2 (n=11), 10 mg/kg/day E4+136 ng/kg/day E2 (n=11), 5 mg/kg/day E4+1.6 mg/kg/day PROG+136 ng/kg/day E2 (n=12), 10 mg/kg/day E4+1.6 mg/kg/day PROG+136 ng/kg/day E2 (n=11), 5 mg/kg/day E4+16 mg/kg/day PROG+136 ng/kg/day E2 (n=11), 10 mg/kg/day E4+16 mg/kg/day PROG+136 ng/kg/day (n=12) groups. […] After surgery, the pups were returned to their dams and allowed to recover for 1 hour. The pups were then placed in a humidified hypoxic in vivo cabinet (CoyLab). […]
The sections were heated in 10 mmol/L citrate buffer (pH 6.0) at 100° C. for 10 minutes. […] Samples were analyzed with the aid of a microscope (Olympus Vanox AHBT3, Olympus), and the ImageJ software 15 (NIH). The percentage of positively stained cells was quantified as a sum of positively stained either DCX or VEGF cells divided by the total number of DAPI positive cells expressed in percentage.

C[C@]12CC[C@@H]3c4ccc(O)cc4CC[C@H]3[C@@H]1[C@@H](O)[C@@H](O)[C@@H]2O [E4, 1,3,5(10)-estratrien-3,15α,16α,17β-tetrol]
CNP mRNA ([1]; E4 5 mg/kg, vs IL-1β): significant increase
MAG mRNA ([1]; E4 5 mg/kg, vs IL-1β): significant increase
MBP expression ([1]; E4 5 mg/kg, vs control group): not statistically different
MBP expression, increase ([1]; E4 5 mg/kg, vs vehicle group (p=0.11)): not significant
expression of myelin genes (MAG, MBP, CNP) ([1]; IL-1β+E4 10 mg/kg, vs IL-1β): No difference
percentage of DCX positively stained cells (doublecortin (DCX); 5 mg/kg/day E4, CA2/CA3): 15.09±12.17%
DCX positively stained cell percentage (doublecortin (DCX); 5 mg/kg/day E4, hippocampus): 59.73±3.44%
